From ChEMBL document CHEMBL5230104, “Systemic review on B-RafV600E mutation as potential therapeutic target for the treatment of cancer” (Eur J Med Chem, 2020)

Assays:
RPMI-8226 = assay: Antiproliferative activity against human RPMI-8226 cells; assay type: functional, cell-based
K562 [1] = assay: Antiproliferative activity against human K562 cells; assay type: functional, cell-based
MDA-MB-468 = assay: Antiproliferative activity against human MDA-MB-468 cells; assay type: functional, cell-based
[2] = target: T1, Serine/threonine-protein kinase B-raf (Homo sapiens, UniProt P15056, V600E); assay: Binding affinity to B-Raf V600E mutant (unknown origin)
Target sequence in this assay (P15056 2-766 V600E limits assumed): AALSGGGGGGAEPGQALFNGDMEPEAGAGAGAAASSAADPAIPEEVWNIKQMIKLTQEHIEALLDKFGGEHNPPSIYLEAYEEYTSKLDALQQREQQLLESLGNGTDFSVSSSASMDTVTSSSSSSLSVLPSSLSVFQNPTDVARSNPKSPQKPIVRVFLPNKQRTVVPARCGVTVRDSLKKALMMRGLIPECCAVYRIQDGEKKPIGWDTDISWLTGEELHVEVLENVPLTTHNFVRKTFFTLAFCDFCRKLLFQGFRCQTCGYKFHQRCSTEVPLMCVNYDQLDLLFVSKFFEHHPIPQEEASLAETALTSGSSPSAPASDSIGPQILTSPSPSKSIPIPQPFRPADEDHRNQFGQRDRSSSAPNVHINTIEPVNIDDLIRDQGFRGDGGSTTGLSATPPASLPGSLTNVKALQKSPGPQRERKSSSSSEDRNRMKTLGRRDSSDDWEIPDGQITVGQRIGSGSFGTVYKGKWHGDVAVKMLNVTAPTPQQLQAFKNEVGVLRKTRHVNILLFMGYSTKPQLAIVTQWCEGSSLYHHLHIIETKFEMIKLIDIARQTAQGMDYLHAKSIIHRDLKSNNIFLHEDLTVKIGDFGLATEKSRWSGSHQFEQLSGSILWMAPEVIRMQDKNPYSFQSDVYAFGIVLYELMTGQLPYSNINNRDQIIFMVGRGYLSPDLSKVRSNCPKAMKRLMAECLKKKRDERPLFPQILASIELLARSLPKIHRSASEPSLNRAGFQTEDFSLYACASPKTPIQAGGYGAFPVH

[3] = target: T2, Serine/threonine-protein kinase B-raf (Homo sapiens, UniProt P15056); assay: Inhibition of wild type B-Raf (unknown origin)
[4] = Antiproliferative activity against human WM1361 cells assessed as cell growth inhibition; assay type: functional, cell-based
[5] = target: T1, Serine/threonine-protein kinase B-raf; assay: Inhibition of B-Raf V600E mutant (unknown origin)
Target sequence in this assay (P15056 whole entry V600E): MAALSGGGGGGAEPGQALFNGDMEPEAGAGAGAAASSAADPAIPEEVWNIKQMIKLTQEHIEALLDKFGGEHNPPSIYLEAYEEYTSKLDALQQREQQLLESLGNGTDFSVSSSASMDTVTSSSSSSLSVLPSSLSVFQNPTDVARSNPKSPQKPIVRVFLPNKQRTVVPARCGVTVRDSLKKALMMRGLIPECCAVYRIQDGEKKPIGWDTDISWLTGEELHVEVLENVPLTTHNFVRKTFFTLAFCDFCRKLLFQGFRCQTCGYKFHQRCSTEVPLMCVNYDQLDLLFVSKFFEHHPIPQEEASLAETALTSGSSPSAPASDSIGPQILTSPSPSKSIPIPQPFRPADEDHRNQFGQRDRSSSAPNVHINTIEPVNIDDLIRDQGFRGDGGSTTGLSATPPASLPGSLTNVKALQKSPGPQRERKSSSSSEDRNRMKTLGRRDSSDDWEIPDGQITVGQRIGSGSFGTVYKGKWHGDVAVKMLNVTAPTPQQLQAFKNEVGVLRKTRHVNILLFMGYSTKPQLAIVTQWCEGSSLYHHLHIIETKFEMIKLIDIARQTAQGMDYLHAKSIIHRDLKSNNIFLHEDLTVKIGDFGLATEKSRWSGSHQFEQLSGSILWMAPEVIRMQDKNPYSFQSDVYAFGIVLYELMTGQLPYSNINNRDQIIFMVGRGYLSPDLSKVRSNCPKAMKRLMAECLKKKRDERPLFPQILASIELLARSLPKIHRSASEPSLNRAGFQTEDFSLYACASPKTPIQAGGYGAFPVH

A-375 [6] = assay: Antiproliferative activity against human A-375 cells assessed as cell growth inhibition; assay type: functional, cell-based
PC-3 [7] = assay: Antiproliferative activity against human PC-3 cells incubated for 48 hrs by MTT assay; assay type: functional, cell-based; conditions: PC-3, 48 h
A-375 [8] = assay: Antiproliferative activity against human A-375 cells incubated for 48 hrs by MTT assay; assay type: functional, cell-based; conditions: A-375, 48 h
A549 [9] = assay: Antiproliferative activity against human A549 cells incubated for 48 hrs by MTT assay; assay type: functional, cell-based; conditions: A549, 48 h
HT-29 [10] = assay: Antiproliferative activity against human HT-29 cells incubated for 48 hrs by MTT assay; assay type: functional, cell-based; conditions: HT-29, 48 h
[11] = target: T2, Serine/threonine-protein kinase B-raf; assay: Inhibition of wild type B-Raf (unknown origin) by hotspot kinase assay
[12] = target: T1, Serine/threonine-protein kinase B-raf; assay: Inhibition of B-Raf V600E mutant (unknown origin) by hotspot kinase assay
Target sequence in this assay (P15056 2-766 V600E limits assumed): as the sequence (P15056 2-766 V600E limits assumed) above

SK-MEL-28 [13] = assay: Antiproliferative activity against human SK-MEL-28 cells; assay type: functional, cell-based
A-375 [14] = assay: Antiproliferative activity against human A-375 cells; assay type: functional, cell-based
A549 [15] = assay: Antiproliferative activity against human A549 cells assessed as cell growth inhibition; assay type: functional, cell-based
COLO 205 = assay: Antiproliferative activity against human COLO 205 cells assessed as inhibition of cell growth; assay type: functional, cell-based
HepG2 = assay: Antiproliferative activity against human HepG2 cells assessed as inhibition of cell growth; assay type: functional, cell-based
SK-MEL-2 [16] = assay: Antiproliferative activity against human SK-MEL-2 cells assessed as inhibition of cell growth; assay type: functional, cell-based
A-375 [17] = assay: Antiproliferative activity against human A-375 cells assessed as inhibition of cell growth; assay type: functional, cell-based
A-375 [18] = assay: Antiproliferative activity against human A-375 cells assessed as inhibition of cell viability; assay type: functional, cell-based
[19] = target: T1, Serine/threonine-protein kinase B-raf; assay: Inhibition of human B-Raf V600E mutant (433 to 726 residues) expressed in Escherichia coli BL21 cells by ELISA based assay
Target sequence in this assay (P15056 2-766 V600E limits assumed): as above

[20] = target: T2, Serine/threonine-protein kinase B-raf; assay: Inhibition of human wild type B-Raf (433 to 726 residues) expressed in Escherichia coli BL21 cells by ELISA based assay
[21] = Inhibition of full length GST tagged mouse B-Raf V600E mutant preincubated for 1 hr and measured after 25 mins in presence of ATP
A-375 [22] = assay: Antiproliferative activity against human A-375 cells measured after 48 hrs by MTT assay; assay type: functional, cell-based; conditions: A-375, 48 h
WM 266-4 = assay: Antiproliferative activity against human WM266-4 cells measured after 48 hrs by MTT assay; assay type: functional, cell-based; conditions: WM 266-4, 48 h
[23] = Antiproliferative activity against human WM1361 cells measured after 48 hrs by MTT assay; assay type: functional, cell-based; conditions: WM1361, 48 h
[24] = Antiproliferative activity against human WM1361 cells incubated for 24 hrs by MTT assay; assay type: functional, cell-based; conditions: WM1361, 24 h
[25] = target: Serine/threonine-protein kinase B-raf (Mus musculus, UniProt P28028); assay: Inhibition of full length GST tagged mouse wild type B-Raf preincubated for 1 hr and measured after 25 mins in presence of ATP
A-375 [26] = assay: Antiproliferative activity against human A-375 cells incubated for 24 hrs by MTT assay; assay type: functional, cell-based; conditions: A-375, 24 h
A549 [27] = assay: Anticancer activity against human A549 cells; assay type: functional, cell-based
HCT-116 = assay: Anticancer activity against human HCT-116 cells; assay type: functional, cell-based
K562 [28] = assay: Anticancer activity against human K562 cells; assay type: functional, cell-based
MV4-11 = assay: Anticancer activity against human MV4-11 cells; assay type: functional, cell-based
SK-MEL-2 [29] = assay: Anticancer activity against human SK-MEL-2 cells; assay type: functional, cell-based
UO-31 = assay: Antiproliferative activity against human UO-31 cells assessed as reduction in cell viability; assay type: functional, cell-based
U-251 = assay: Antiproliferative activity against human U-251 cells assessed as reduction in cell viability; assay type: functional, cell-based
[30] = target: T2, Serine/threonine-protein kinase B-raf; assay: Inhibition of wild type B-Raf (unknown origin) by radiometric protein kinase-reaction biology assay
A-375 [31] = assay: Antiproliferative activity against human A-375 cells assessed as reduction in cell viability; assay type: functional, cell-based
IGROV-1 = assay: Antiproliferative activity against human IGROV-1 cells assessed as reduction in cell viability; assay type: functional, cell-based
[32] = target: T1, Serine/threonine-protein kinase B-raf; assay: Inhibition of B-Raf V600E mutant (unknown origin) by radiometric protein kinase-reaction biology assay
Target sequence in this assay (P15056 2-766 V600E limits assumed): as above

NCI-H460 = assay: Antiproliferative activity against human NCI-H460 cells assessed as reduction in cell viability; assay type: functional, cell-based
PC-3 [33] = assay: Antiproliferative activity against human PC-3 cells assessed as reduction in cell viability; assay type: functional, cell-based
HT-29 [34] = assay: Antiproliferative activity against human HT-29 cells assessed as reduction in cell viability; assay type: functional, cell-based
SK-MEL-28 [35] = assay: Antiproliferative activity against human SK-MEL-28 cells assessed as reduction in cell viability; assay type: functional, cell-based
SK-MEL-5 = assay: Antiproliferative activity against human SK-MEL-5 cells assessed as reduction in cell viability; assay type: functional, cell-based
K562 [36] = assay: Antiproliferative activity against human K562 cells assessed as reduction in cell viability; assay type: functional, cell-based
T47D = assay: Antiproliferative activity against human T47D cells assessed as reduction in cell viability; assay type: functional, cell-based

T2 sequence (P15056 whole entry): as the sequence (P15056 whole entry V600E) above, with E600V counted along it
Serine/threonine-protein kinase B-raf (Mus musculus, UniProt P28028), sequence (P28028 whole entry): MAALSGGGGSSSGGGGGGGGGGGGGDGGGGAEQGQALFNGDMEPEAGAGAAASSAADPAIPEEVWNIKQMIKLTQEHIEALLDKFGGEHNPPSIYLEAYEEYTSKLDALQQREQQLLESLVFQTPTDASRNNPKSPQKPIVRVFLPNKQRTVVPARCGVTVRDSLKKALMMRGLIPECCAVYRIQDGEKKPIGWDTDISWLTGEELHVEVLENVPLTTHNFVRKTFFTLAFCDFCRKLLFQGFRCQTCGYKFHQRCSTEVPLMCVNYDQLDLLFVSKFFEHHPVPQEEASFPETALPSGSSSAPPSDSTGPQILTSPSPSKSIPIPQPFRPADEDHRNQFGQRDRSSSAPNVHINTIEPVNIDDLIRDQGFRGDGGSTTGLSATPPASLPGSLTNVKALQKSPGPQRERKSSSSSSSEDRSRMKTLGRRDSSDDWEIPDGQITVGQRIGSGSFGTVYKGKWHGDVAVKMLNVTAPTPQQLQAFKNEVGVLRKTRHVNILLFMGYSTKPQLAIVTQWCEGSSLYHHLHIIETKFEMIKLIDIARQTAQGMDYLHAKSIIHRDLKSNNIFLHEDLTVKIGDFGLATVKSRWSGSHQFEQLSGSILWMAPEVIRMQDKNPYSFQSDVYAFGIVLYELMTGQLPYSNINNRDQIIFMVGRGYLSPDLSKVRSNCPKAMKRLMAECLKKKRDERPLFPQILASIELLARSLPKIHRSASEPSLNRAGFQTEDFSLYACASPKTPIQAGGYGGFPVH

For `COc1cccc(-c2nn(-c3ccccc3)cc2-c2ccncc2)c1`, the IC50 (RPMI-8226) was 1.71 µM, the IC50 (K562 [1]) was 3.42 µM and the IC50 (MDA-MB-468) was 6.7 µM. For the same compound, the IC50 [2] was 1.44 µM.

`COc1ccc(-n2cc(NC(=O)c3cccc(NC(=O)Nc4ccc(Cl)c(C(F)(F)F)c4)c3)cn2)cc1` showed an IC50 [3] of 0.22 µM, an IC50 [4] of 7.12 µM and an IC50 [5] of 0.035 µM. It also gave an IC50 (A-375 [6]) of 0.39 µM.

For `Cn1ncc2c(Oc3ccc(NC(=O)Nc4ccc(Cl)c(C(F)(F)F)c4)cc3)ncnc21`, the IC50 (PC-3 [7]) was 23.4 µM, the IC50 (A-375 [8]) was 12.2 µM and the IC50 (A549 [9]) was 12.5 µM. For the same compound, the IC50 (HT-29 [10]) was 14.7 µM.

With `COc1cc(-c2nn(-c3ccc(NC(=O)CN4CCOCC4)cc3)cc2-c2ccncc2)ccc1Cl` the IC50 [11] was 0.536 µM, the IC50 [12] was 0.00298 µM and the IC50 (SK-MEL-28 [13]) was 2.21 µM. For the same compound, the IC50 (A-375 [14]) was 1.82 µM.

For `Cc1ccc(C2=NN=C(NC(=S)Nc3ccc(Cl)cc3)SC2)cc1`, the IC50 (A549 [15]) was 0.32 µM and the IC50 [5] was 0.18 µM.

With `Cc1ccc(C(=O)Nc2ccc(Cl)c(C(F)(F)F)c2)cc1NC(=O)C1(c2ccnc(NCCN3CCN(C)CC3)n2)CC1` the IC50 [3] was 0.0197 µM, the IC50 (COLO 205) was 1.92 µM and the IC50 [5] was 0.0126 µM. The IC50 (HepG2) was 2.46 µM, the IC50 (SK-MEL-2 [16]) was 0.58 µM and the IC50 (A-375 [17]) was 1.07 µM.

Work on `CC(C)(C)c1cc(NC(=O)Nc2ccc(Oc3ccnc4[nH]c(=O)cnc34)cc2F)n(-c2ccccc2)n1` yielded an IC50 [3] of 0.1 µM and an IC50 (A-375 [18]) of 12 µM.

Work on `O=S(=O)(Nc1ccc(F)c(Nc2ccccc2-c2ncnc3[nH]cnc23)c1F)c1ccoc1` yielded an IC50 [3] of 0.0022 µM and an IC50 [5] of 0.002 µM.

For `COC(=O)c1ccccc1-c1ccc(/C=C/[N+](=O)[O-])o1`, the IC50 [19] was 1.96 µM and the IC50 [20] was 1.38 µM.

`COc1ccc(S(=O)(=O)Nc2cc(-c3ccc(C)cc3)[nH]n2)cc1` showed an IC50 [21] of 0.18 µM, an IC50 (A-375 [22]) of 2.04 µM and an IC50 (WM 266-4) of 1.58 µM. The IC50 [23] was 10.1 µM.

`Cc1ccc(-n2cc(NC(=O)c3c[nH]c4ccccc34)cn2)cc1` gave an IC50 [24] of 10 µM, an IC50 [21] of 0.1 µM and an IC50 [25] of 0.92 µM. For the same compound, the IC50 (A-375 [26]) was 0.93 µM.

`O=C(Nc1ccc(Oc2ccc(C(=O)c3ncc[nH]3)cc2)cc1)Nc1ccc(Cl)c(C(F)(F)F)c1` showed an IC50 [3] of 0.134 µM, an IC50 (A549 [27]) of 9.11 µM and an IC50 [5] of 0.086 µM. For the same compound, the IC50 (HCT-116) was 10.9 µM, the IC50 (K562 [28]) was 9.13 µM and the IC50 (MV4-11) was 0.38 µM. The IC50 (SK-MEL-2 [29]) was 5.4 µM.

With `O=S(=O)(NCCCNc1nccc(-c2c(-c3cccc(F)c3)nc3occn23)n1)c1ccccc1` the IC50 (UO-31) was 39.8 µM, the IC50 (U-251) was 7.38 µM and the IC50 [30] was 0.172 µM. For the same compound, the IC50 (A-375 [31]) was 9.81 µM, the IC50 (IGROV-1) was 40.2 µM and the IC50 [32] was 0.092 µM. It also gave an IC50 (NCI-H460) of 18.5 µM, an IC50 (PC-3 [33]) of 38.9 µM and an IC50 (HT-29 [34]) of 51.8 µM. It also gave an IC50 (SK-MEL-28 [35]) of 11.2 µM, an IC50 (SK-MEL-5) of 28.4 µM and an IC50 (K562 [36]) of 56.3 µM. It also gave an IC50 (T47D) of 53.6 µM.
